{
  "source": "patent US20260022143A1",
  "about": "“Cyclic Peptide Inhibitors of IL-23” (JANSSEN PHARMACEUTICA NV, priority 2022, published 2026)",
  "test": "Exposed Polar Surface Area (EPSA)",
  "assay_type": "physicochemical",
  "details": "SFC on Chirex 3014 column; sample 1 mM DMSO stock; read-out: EPSA",
  "method_in_brief": "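Polarity measured by SFC on a Chirex 3014 column (35 °C, 4 mL/min) with methanol/ammonium formate in CO2 as gradient eluent. Retention times were normalised to EPSA (Å^2) against eight reference compounds.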",
  "note": "Positions of bridges follow the written chain, without caps; N, C: chain ends. Non-standard residues stand in square brackets, D forms with d. Residues, ends and D or L forms follow the SMILES beside them. Groups on a side chain read outwards from the residue. *: point of attachment. Trp(7-(3-AcNH-Ph)) = CC(=O)Nc1cccc(-c2cccc3c(C[C@H](N)C(=O)O)c[nH]c23)c1; Me3N+(CH2)2O(CH2)2O(CH2)2CO = C[N+](C)(C)CCOCCOCCC(=O)*; PEG12 = NCCOCCOCCOCCOCCOCCOCCOCCOCCOCCOCCOCCOCCC(=O)O; Trp(7-Me) = Cc1cccc2c(C[C@H](N)C(=O)O)c[nH]c12; dLys(Me3) = C[N+](C)(C)CCCC[C@@H](N)C(=O)O; 3Pal(5-Me) = Cc1cncc(C[C@H](N)C(=O)O)c1; 2Nal = N[C@@H](Cc1ccc2ccccc2c1)C(=O)O; AEF = NCCOc1ccc(C[C@H](N)C(=O)O)cc1; 3Pal = N[C@@H](Cc1cccnc1)C(=O)O; Ethyl(2-guanidino) = N=C(N)NCC*; Lys(Me) = CNCCCC[C@H](N)C(=O)O; X90 = COCCOCCOCC[N+](C)(C)CC*; Pen = CC(C)(S)[C@H](N)C(=O)O; Thp = NC1(C(=O)O)CCOCC1; Sar = CNCC(=O)O",
  "data": [
    {"smiles": "COCCOCCOCC[N+](C)(C)CCOc1ccc(C[C@H](NC(=O)[C@H]2NC(=O)[C@H](CCCCN(C)C(C)=O)NC(=O)[C@H](Cc3c[nH]c4c(C)cccc34)NC(=O)[C@H]([C@@H](C)O)NC(=O)[C@H](CC(=O)N(C)C)NC(=O)[C@@H](NC(=O)CCOCCOCC[N+](C)(C)C)C(C)(C)SSC2(C)C)C(=O)N[C@@H](Cc2ccc3ccccc3c2)C(=O)NC2(C(=O)N[C@@H](CCCCN(C)C(C)=O)C(=O)N[C@@H](CC(N)=O)C(=O)N[C@@H](Cc3cccnc3)C(=O)N(C)CC(=O)N(C)C)CCOCC2)cc1", "note": "[compound 239, cPEG3aCO-Pen(3)-N(N(Me)2)-T-7MeW-K(NMeAc)-pen(3)-AEF(NMe2mPEG3)-2Nal-THP-K(NMeAc)-N-3Pya-Sar-CON(Me)2] ({Me3N+(CH2)2O(CH2)2O(CH2)2CO}-[Pen]D(NMe2)T[Trp(7-Me)][Lys(Me)](Ac)[Pen]Y(X90)[2Nal][Thp][Lys(Me)](Ac)N[3Pal][Sar]-NMe2; disulfide 1-6)", "values": [
      {"measurement": "EPSA", "value": 138, "unit": "A^2"}
    ]},
    {"smiles": "CC(=O)NCCCC[C@@H]1NC(=O)[C@H](Cc2c[nH]c3c(C)cccc23)NC(=O)[C@H]([C@@H](C)O)NC(=O)[C@H](CC(N)=O)NC(=O)[C@@H](NC(C)=O)C(C)(C)SSC(C)(C)[C@@H](C(=O)N[C@@H](Cc2ccc(OCCN)cc2)C(=O)N[C@@H](Cc2ccc3ccccc3c2)C(=O)NC2(C(=O)N[C@@H](CCC(=O)O)C(=O)N[C@@H](CC(N)=O)C(=O)N[C@@H](Cc3cccnc3)C(=O)N(C)CC(=O)N3CCOCC3)CCOCC2)NC1=O", "note": "[SEQ ID 112, MeCO-Pen(3)—N-T-7MeW—K(Ac)-Pen(3)-AEF-2Nal-THIP-E-N-3Pya-Sar-COMor]", "values": [
      {"measurement": "EPSA", "value": 169, "unit": "A^2"}
    ]},
    {"smiles": "CC(=O)NCCCC[C@@H]1NC(=O)[C@H](Cc2c[nH]c3c(-c4cccc(NC(C)=O)c4)cccc23)NC(=O)[C@H]([C@@H](C)O)NC(=O)[C@H](CC(N)=O)NC(=O)[C@@H](NC(=O)[C@@H](CCCC[N+](C)(C)C)NC(C)=O)C(C)(C)SSC(C)(C)[C@@H](C(=O)N[C@@H](Cc2ccc(OCCNC(=N)N)cc2)C(=O)N[C@@H](Cc2ccc3ccccc3c2)C(=O)NC2(C(=O)N[C@@H](CCC(=O)O)C(=O)N[C@@H](CC(N)=O)C(=O)N[C@@H](Cc3cncc(C)c3)C(=O)N(C)CC(N)=O)CCOCC2)NC1=O", "note": "[compound 480, MeCO-k(Me)3-Pen(3)-N-T-7(3NAcPh)W-K(Ac)-Pen(3)-AEF(G)-2Nal-THP-E-N-5MePyridinAla-Sar-CONH2] (Ac-[dLys(Me3)][Pen]NT[Trp(7-(3-AcNH-Ph))]K(Ac)[Pen]Y(Ethyl(2-guanidino))[2Nal][Thp]EN[3Pal(5-Me)][Sar]-NH2; disulfide 2-7)", "values": [
      {"measurement": "EPSA", "value": 198, "unit": "A^2"}
    ]},
    {"smiles": "CC(=O)NCCCC[C@@H]1NC(=O)[C@H](Cc2c[nH]c3c(C)cccc23)NC(=O)[C@H]([C@@H](C)O)NC(=O)[C@H](CC(N)=O)NC(=O)[C@@H](NC(=O)CCOCCOCC[N+](C)(C)C)C(C)(C)SSC(C)(C)[C@@H](C(=O)N[C@@H](Cc2ccc(OCCCCC[N+](C)(C)C)cc2)C(=O)N[C@@H](Cc2ccc3ccccc3c2)C(=O)NC2(C(=O)N[C@@H](CCC(=O)O)C(=O)N[C@@H](CC(N)=O)C(=O)N[C@@H](Cc3cncc(C)c3)C(=O)N(C)CC(N)=O)CCOCC2)NC1=O", "note": "[compound 505, cPEG3aCO-Pen(3)-N-T-7MeW-K(Ac)-Pen(3)-TMAPF-2Nal-THP-E-N-5MePyridinAla-Sar-CONH2]", "values": [
      {"measurement": "EPSA", "value": 179, "unit": "A^2"}
    ]},
    {"smiles": "CC(=O)NCCCC[C@@H]1NC(=O)[C@H](Cc2c[nH]c3c(C)cccc23)NC(=O)[C@H]([C@@H](C)O)NC(=O)[C@H](CC(N)=O)NC(=O)[C@@H](NC(=O)[C@@H](CCCCNC(=O)CCOCCOCCOCCOCCOCCOCCOCCOCCOCCOCCOCCOCCNC(C)=O)NC(C)=O)C(C)(C)SSC(C)(C)[C@@H](C(=O)N[C@@H](Cc2ccc(OCCN)cc2)C(=O)N[C@@H](Cc2ccc3ccccc3c2)C(=O)NC2(C(=O)N[C@@H](CCCCNC(C)=O)C(=O)N[C@@H](CC(N)=O)C(=O)N[C@@H](Cc3cccnc3)C(=O)N(C)CC(N)=O)CCOCC2)NC1=O", "note": "[compound 40] (Ac-[dK]([PEG12-Ac])[Pen]NT[Trp(7-Me)]K(Ac)[Pen][AEF][2Nal][Thp]K(Ac)N[3Pal][Sar]-NH2; disulfide 2-7)", "values": [
      {"measurement": "EPSA", "value": 156, "unit": "A^2"}
    ]}
  ]
}
